Test results published in PMC6151695, “Novel Selective Estrogen Receptor Ligand Conjugates Incorporating Endoxifen-Combretastatin and Cyclofenil-Combretastatin Hybrid Scaffolds: Synthesis and Biochemical Evaluation” (Molecules : A Journal of Synthetic Chemistry and Natural …, 2017).
Marks after values point to notes of the source that are not given here.

Tests used:
KM12 = assay: NCI60 in vitro screen, Colon Cancer; format: cell-based, human
HS 578T = assay: NCI60 in vitro screen, Breast cancer; format: cell-based, human
RPMI-8226 = assay: NCI60 in vitro screen, Leukemia; format: cell-based, human
MOLT-4 = assay: NCI60 in vitro screen, Leukemia; format: cell-based, human
HCT-15 = assay: NCI60 in vitro screen, Colon Cancer; format: cell-based, human
UACC-62 = assay: NCI60 in vitro screen, Melanoma; format: cell-based, human
OVCAR-3 = assay: NCI60 in vitro screen, Ovarian cancer; format: cell-based, human
UACC-257 = assay: NCI60 in vitro screen, Melanoma; format: cell-based, human
MCF-7 = assay: cells; details: Homo sapiens
physchem = details: buffer
CAKI-1 = assay: NCI60 in vitro screen, Renal cancer; format: cell-based, human
RXF 393 = assay: NCI60 in vitro screen, Renal cancer; format: cell-based, human
HCT-2998 = assay: NCI60 in vitro screen, Colon Cancer; format: cell-based, human
T-47D = assay: NCI60 in vitro screen, Breast cancer; format: cell-based, human
U251 = assay: NCI60 in vitro screen, CNS Cancer; format: cell-based, human
OVCAR-8 = assay: NCI60 in vitro screen, Ovarian cancer; format: cell-based, human
TK-10 = assay: NCI60 in vitro screen, Renal cancer; format: cell-based, human
UO-31 = assay: NCI60 in vitro screen, Renal cancer; format: cell-based, human
SNB-19 = assay: NCI60 in vitro screen, CNS Cancer; format: cell-based, human
SNB-75 = assay: NCI60 in vitro screen, CNS Cancer; format: cell-based, human
HT29 = assay: NCI60 in vitro screen, Colon Cancer; format: cell-based, human
SK-OV-3 = assay: NCI60 in vitro screen, Ovarian cancer; format: cell-based, human
PC-3 = assay: NCI60 in vitro screen, Prostate cancer; format: cell-based, human
NCI-H332M = assay: NCI60 in vitro screen, Non-Small Cell Lung Cancer; format: cell-based, human
OVCAR-4 = assay: NCI60 in vitro screen, Ovarian cancer; format: cell-based, human
human ERβ = target: T1, human ERβ (Homo sapiens, UniProt Q92731); assay: Estrogen receptor fluorescence polarisation competitive binding assay, ERβ; details: competitive binding, fluorescence polarisation; read-out: ERβ IC50
T1 construct: purchased Invitrogen

SK-MEL-28 = assay: NCI60 in vitro screen, Melanoma; format: cell-based, human
M14 = assay: NCI60 in vitro screen, Melanoma; format: cell-based, human
EKVX = assay: NCI60 in vitro screen, Non-Small Cell Lung Cancer; format: cell-based, human
COLO 205 = assay: NCI60 in vitro screen, Colon Cancer; format: cell-based, human

T1 sequence (Q92731 whole entry): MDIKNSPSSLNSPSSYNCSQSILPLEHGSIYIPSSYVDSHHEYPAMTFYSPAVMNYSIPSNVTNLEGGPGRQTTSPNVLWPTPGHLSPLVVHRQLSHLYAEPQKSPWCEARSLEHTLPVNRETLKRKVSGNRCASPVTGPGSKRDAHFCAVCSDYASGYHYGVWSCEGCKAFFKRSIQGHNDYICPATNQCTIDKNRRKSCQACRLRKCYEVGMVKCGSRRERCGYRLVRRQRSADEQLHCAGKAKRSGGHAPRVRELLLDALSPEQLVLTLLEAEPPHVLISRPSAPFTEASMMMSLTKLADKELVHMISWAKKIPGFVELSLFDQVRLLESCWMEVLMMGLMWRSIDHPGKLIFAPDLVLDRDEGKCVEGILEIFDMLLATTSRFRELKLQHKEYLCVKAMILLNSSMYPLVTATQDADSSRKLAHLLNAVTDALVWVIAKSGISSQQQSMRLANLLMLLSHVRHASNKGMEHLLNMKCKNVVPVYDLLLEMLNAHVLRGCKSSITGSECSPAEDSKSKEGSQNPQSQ

SMILES: CC/C(=C(\c1ccccc1)c1ccc(OCCN(C)C(=O)CCC(=O)Oc2cc(/C=C\c3cc(OC)c(OC)c(OC)c3)ccc2OC)cc1)c1ccccc1 (mixture of isomers) [Compound 16a, N-{2-[4-((Z)-1,2-Diphenylbut-1-enyl)phenoxy]ethyl}-N-methylsuccinamic acid 2-methoxy-5-[(Z)-2-(3,4,5-trimethoxyphenyl)vinyl]phenyl ester]
- GI50 (KM12; Homo sapiens, KM12): < 10 nM
- Growth % (10^−5 M) (KM12; KM12, 10 μM): −37 ^e %
- Growth % (10^−5 M) (HS 578T; 10 μM): 17.57%
- GI50 (HS 578T; Homo sapiens): 25.5 nM
- GI50 (RPMI-8226; Homo sapiens, RPMI-8226): 27.1 nM
- Growth % (10^−5 M) (RPMI-8226; RPMI-8226, 10 μM): −18.51 ^e %
- GI50 (MOLT-4; Homo sapiens, MOLT-4): 39.8 nM
- Growth % (10^−5 M) (MOLT-4; MOLT-4, 10 μM): 36.2%
- Growth % (10^−5 M) (HCT-15; HCT-15, 10 μM): 0.71%
- GI50 (HCT-15; Homo sapiens, HCT-15): 24.5 nM
- inhibition at 10 µM (HCT-15; Homo sapiens, HCT-15, one-dose, 10 μM, read-out: growth inhibition): 99%
- GI50 (UACC-62; Homo sapiens, UACC-62): 18.1 nM
- Growth % (10^−5 M) (UACC-62; UACC-62, 10 μM): 25.13%
- GI50 (OVCAR-3; Homo sapiens, OVCAR-3): < 10 nM
- Growth % (10^−5 M) (OVCAR-3; OVCAR-3, 10 μM): −57.79 ^e %
- GI50 (UACC-257; Homo sapiens, UACC-257): > 10000 nM
- Growth % (10^−5 M) (UACC-257; UACC-257, 10 μM): 48.73%
- GI50 (MCF-7; MCF7): 34.5 nM
- IC50 (MCF-7; MCF7, read-out: GI50 (IC50)): 36 nM
- inhibition at 10 µM (MCF-7; MCF7, read-out: growth inhibition): 90%
- half-life at 14.6 µg/mL (physchem): > 20 h
- Growth % (10^−5 M) (CAKI-1; CAKI-1, 10 μM): 23.4%
- GI50 (CAKI-1; Homo sapiens, CAKI-1): 30.7 nM
- GI50 (RXF 393; Homo sapiens, RXF 393): 39.8 nM
- Growth % (10^−5 M) (RXF 393; RXF 393, 10 μM): 12.08%
- Growth % (10^−5 M) (HCT-2998; HCT-2998, 10 μM): 4.72%
- inhibition at 10 µM (HCT-2998; Homo sapiens, HCC-2998, one-dose, 10 μM, read-out: growth inhibition): 95%
- GI50 (HCT-2998; Homo sapiens, HCT-2998): 31.7 nM
- Growth % (10^−5 M) (T-47D; 10 μM): 59.73%
- GI50 (T-47D; Homo sapiens, T47D): > 10000 nM
- GI50 (U251; Homo sapiens, U-251, U251): 31.6 nM
- inhibition at 10 µM (U251; Homo sapiens, U-251, U251, one-dose, 10 μM, read-out: growth inhibition): 90%
- Growth % (10^−5 M) (U251; U251, 10 μM): 10.13%
- GI50 (OVCAR-8; Homo sapiens, OVCAR-8): 49 nM
- Growth % (10^−5 M) (OVCAR-8; OVCAR-8, 10 μM): 12.79%
- GI50 (TK-10; Homo sapiens, TK-10): 589 nM
- Growth % (10^−5 M) (TK-10; TK-10, 10 μM): 33.77%
- GI50 (UO-31; Homo sapiens, UO-31): 88.4 nM
- Growth % (10^−5 M) (UO-31; UO-31, 10 μM): 31.52%
- GI50 (SNB-19; Homo sapiens, SNB-19): 36.5 nM
- Growth % (10^−5 M) (SNB-19; SNB-19, 10 μM): 28.03%
- GI50 (SNB-75; Homo sapiens, SNB-75): 16.6 nM
- Growth % (10^−5 M) (SNB-75; SNB-75, 10 μM): 39.46%
- Growth % (10^−5 M) (HT29; HT29, 10 μM): 6.79%
- GI50 (HT29; Homo sapiens, HT-29, HT29): 489 nM
- inhibition at 10 µM (HT29; Homo sapiens, HT-29, HT29, one-dose, 10 μM, read-out: growth inhibition): 93%
- GI50 (SK-OV-3; Homo sapiens, SK-OV-3): 36.8 nM
- Growth % (10^−5 M) (SK-OV-3; SK-OV-3, 10 μM): 17.23%
- GI50 (PC-3; Homo sapiens, PC-3): 12 nM
- Growth % (10^−5 M) (PC-3; PC-3, 10 μM): 19.1%
- Growth % (10^−5 M) (NCI-H332M; 10 μM): 57.18%
- GI50 (NCI-H332M; Homo sapiens): 67.2 nM
- GI50 (OVCAR-4; Homo sapiens, OVCAR-4): 62.8 nM
- Growth % (10^−5 M) (OVCAR-4; OVCAR-4, 10 μM): 30.96%
- IC50 (human ERβ): 22.7 nM
- GI50 (SK-MEL-28; Homo sapiens, SK-MEL-28): < 10 nM
- Growth % (10^−5 M) (SK-MEL-28; SK-MEL-28, 10 μM): 89.31%
- GI50 (M14; Homo sapiens, M14): 12.9 nM
- inhibition at 10 µM (M14; Homo sapiens, M14, one-dose, 10 μM, read-out: growth inhibition): 99%
- Growth % (10^−5 M) (M14; M14, 10 μM): 1.39%
- Growth % (10^−5 M) (EKVX; 10 μM): 22.72%
- GI50 (EKVX; Homo sapiens): 56.9 nM
- Growth % (10^−5 M) (COLO 205; COLO 205, 10 μM): −55 ^e %
- GI50 (COLO 205; Homo sapiens, COLO 205): 378 nM
